US20140038989A1, “TETRAHYDROPYRAZOLO [1,5-A] PYRIMIDINE AS ANTI-TUBERCULOSIS COMPOUNDS” (Glaxo Group Limited, priority 2011, published 2014)
In brackets after ≈: the same amount, converted by molar mass.

Tested on: Mycobacterium tuberculosis H37Rv
Experiment: Mycobacterium tuberculosis H37Rv Inhibition Assay (Whole Cell Assay)
Format: cell-based
Conditions: ATCC 25618 / H37Rv, H37Rv strain (ATCC25618), Middlebrook 7H9, six days at 37° C., resazurin fluorescence after 48 hours

SMILES: CCc1ccc([C@H]2C[C@@H](C(F)(F)F)n3ncc(C(=O)NCc4ccc(OC)c(OC)c4)c3N2)cc1 (relative stereo) [Example 47, Cis-N-(3,4-dimethoxybenzyl)-5-(4-ethylphenyl)-7-(trifluoromethyl)-4,5,6,7-tetrahydropyrazolo[1,5-a]pyrimidine-3-carboxamide]
- MIC: > 2 µM

SMILES: CCc1ccc([C@H]2C[C@@H](C(F)(F)F)n3ncc(C(=O)NCc4ccncc4)c3N2)cc1 (relative stereo) [Example 48, Cis-5-(4-ethylphenyl)-N-(pyridin-4-ylmethyl)-7-(trifluoromethyl)-4,5,6,7-tetrahydropyrazolo[1,5-a]pyrimidine-3-carboxamide]
- MIC: > 2 µM

SMILES: Cc1ccc([C@H]2C[C@@H](C(F)(F)F)n3ncc(C(=O)NCc4ccc(N(C)C)cc4)c3N2)cc1 (relative stereo) [Example 49, Cis-N-(4-(dimethylamino)benzyl)-5-(p-tolyl)-7-(trifluoromethyl)-4,5,6,7-tetrahydropyrazolo[1,5-a]pyrimidine-3-carboxamide]
- MIC: > 2 µM

SMILES: Cc1ccc([C@H]2C[C@@H](C(F)(F)F)n3ncc(C(=O)NCc4ccc5c(c4)OCCO5)c3N2)cc1 (relative stereo) [Example 50, Cis-N-((2,3-dihydrobenzo[b][1,4]dioxin-6-yl)methyl)-5-(p-tolyl)-7-(trifluoromethyl)-4,5,6,7-tetrahydropyrazolo[1,5-a]pyrimidine-3-carboxamide]
- MIC: > 2 µM

SMILES: CCc1ccc([C@H]2C[C@@H](C(F)(F)F)n3ncc(C(=O)NCc4ccc(F)cc4)c3N2)cc1 (relative stereo) [Example 58, Cis-5-(4-ethylphenyl)-N-(4-fluorobenzyl)-7-(trifluoromethyl)-4,5,6,7-tetrahydropyrazolo[1,5-a]pyrimidine-3-carboxamide]
- MIC: ≤ 1 µM

SMILES: CCc1ccc([C@H]2C[C@@H](C(F)(F)F)n3ncc(C(=O)NCc4ccc(F)cc4F)c3N2)cc1 (relative stereo) [Example 59, Cis-N-[(2,4-difluorophenyl)methyl]-5-(4-ethylphenyl)-7-(trifluoromethyl)-4,5,6,7-tetrahydropyrazolo[1,5-a]pyrimidine-3-carboxamide]
- MIC: ≤ 1 µM

SMILES: CCc1ccc([C@H]2C[C@@H](C(F)(F)F)n3ncc(C(=O)NCc4cccc(F)c4)c3N2)cc1 (relative stereo) [Example 60, Cis-5-(4-ethylphenyl)-N-(3-fluorobenzyl)-7-(trifluoromethyl)-4,5,6,7-tetrahydropyrazolo[1,5-a]pyrimidine-3-carboxamide]
- MIC: ≤ 1 µM

SMILES: CCc1ccc([C@H]2C[C@@H](C(F)(F)F)n3ncc(C(=O)NCc4ccccc4F)c3N2)cc1 (relative stereo) [Example 62, Cis-5-(4-ethylphenyl)-N-(2-fluorobenzyl)-7-(trifluoromethyl)-4,5,6,7-tetrahydropyrazolo[1,5-a]pyrimidine-3-carboxamide]
- MIC: ≤ 1 µM

SMILES: CCc1ccc([C@H]2C[C@@H](C(F)(F)F)n3ncc(C(=O)NCc4ccc(F)c(C)c4)c3N2)cc1 (relative stereo) [Example 63, Cis-5-(4-ethylphenyl)-N-(4-fluoro-3-methylbenzyl)-7-(trifluoromethyl)-4,5,6,7-tetrahydropyrazolo[1,5-a]pyrimidine-3-carboxamide]
- MIC: ≤ 1 µM

SMILES: CCc1ccc([C@H]2C[C@@H](C(F)(F)F)n3ncc(C(=O)NCc4ccc(C)c(F)c4)c3N2)cc1 (relative stereo) [Example 64, Cis-5-(4-ethylphenyl)-N-(3-fluoro-4-methylbenzyl)-7-(trifluoromethyl)-4,5,6,7-tetrahydropyrazolo[1,5-a]pyrimidine-3-carboxamide]
- MIC: ≤ 1 µM

SMILES: CCc1ccc([C@H]2C[C@@H](C(F)(F)F)n3ncc(C(=O)NCc4ccc(C)c(C)c4)c3N2)cc1 (relative stereo) [Example 65, Cis-N-(3,4-dimethylbenzyl)-5-(4-ethylphenyl)-7-(trifluoromethyl)-4,5,6,7-tetrahydropyrazolo[1,5-a]pyrimidine-3-carboxamide]
- MIC: ≤ 1 µM

SMILES: CCc1ccc([C@H]2C[C@@H](C(C)C)n3ncc(C(=O)NCc4ccc(C)cc4)c3N2)cc1 (relative stereo) [Example 66, Cis-5-(4-ethylphenyl)-7-isopropyl-N-(4-methylbenzyl)-4,5,6,7-tetrahydropyrazolo[1,5-a]pyrimidine-3-carboxamide]
- MIC: ≤ 1 µM

SMILES: CCc1ccc([C@H]2C[C@@H](C(F)(F)F)n3ncc(C(=O)NCc4ccc(Cl)cc4)c3N2)cc1 (relative stereo) [Example 67, Cis-N-(4-chlorobenzyl)-5-(4-ethylphenyl)-7-(trifluoromethyl)-4,5,6,7-tetrahydropyrazolo[1,5-a]pyrimidine-3-carboxamide]
- MIC: ≤ 1 µM

SMILES: CCc1ccc([C@H]2C[C@@H](C(C)(F)F)n3ncc(C(=O)NCc4ccc(C)cc4)c3N2)cc1 (relative stereo) [Example 68, Cis-7-(1,1-difluoroethyl)-5-(4-ethylphenyl)-N-(4-methylbenzyl)-4,5,6,7-tetrahydropyrazolo[1,5-a]pyrimidine-3-carboxamide]
- MIC: ≤ 1 µM

SMILES: CCc1ccc([C@H]2C[C@@H](C(F)(F)F)n3ncc(C(=O)NCc4ccc(F)cn4)c3N2)cc1 (relative stereo) [Example 69, Cis-5-(4-ethylphenyl)-N-((5-fluoropyridin-2-yl)methyl)-7-(trifluoromethyl)-4,5,6,7-tetrahydropyrazolo[1,5-a]pyrimidine-3-carboxamide]
- MIC: ≤ 1 µM

SMILES: CCc1ccc([C@H]2C[C@@H](C(F)(F)F)n3ncc(C(=O)NCc4ncc(F)cc4F)c3N2)cc1 (relative stereo) [Example 70, Cis N-((3,5-difluoropyridin-2-yl)methyl)-5-(4-ethylphenyl)-7-(trifluoromethyl)-4,5,6,7-tetrahydropyrazolo[1,5-a]pyrimidine-3-carboxamide]
- MIC: ≤ 1 µM

SMILES: CCc1ccc([C@H]2C[C@@H](C(C)C)n3ncc(C(=O)NCc4ccc(OC)cc4)c3N2)cc1 (relative stereo) [Example 71, Cis-5-(4-ethylphenyl)-7-isopropyl-N-(4-methoxybenzyl)-4,5,6,7-tetrahydropyrazolo[1,5-a]pyrimidine-3-carboxamide]
- MIC: ≤ 1 µM

SMILES: CCc1ccc([C@H]2C[C@@H](C(F)(F)F)n3ncc(C(=O)NCc4ccc(C)n4C)c3N2)cc1 (relative stereo) [Example 72, Cis-N-((1,5-dimethyl-1H-pyrrol-2-yl)methyl)-5-(4-ethylphenyl)-7-(trifluoromethyl)-4,5,6,7-tetrahydropyrazolo[1,5-a]pyrimidine-3-carboxamide]
- MIC: ≤ 1 µM

SMILES: CCc1ccc([C@H]2C[C@@H](C(F)(F)F)n3ncc(C(=O)NCc4ccccc4Cl)c3N2)cc1 (relative stereo) [Example 73, Cis-N-(2-chlorobenzyl)-5-(4-ethylphenyl)-7-(trifluoromethyl)-4,5,6,7-tetrahydropyrazolo[1,5-a]pyrimidine-3-carboxamide]
- MIC: 1 to 2 µM (≈ 0.463 to 0.926 µg/mL)

SMILES: CCc1ccc([C@H]2C[C@@H](C(F)(F)F)n3ncc(C(=O)NCc4ccc(OC)nc4)c3N2)cc1 (relative stereo) [Example 74, Cis5-(4-ethylphenyl)-N-((6-methoxypyridin-3-yl)methyl)-7-(trifluoromethyl)-4,5,6,7-tetrahydropyrazolo[1,5-a]pyrimidine-3-carboxamide]
- MIC: 1 to 2 µM (≈ 0.459 to 0.919 µg/mL)
